Laboratory results: BindingDB's records for patent US10556914 (ABBVIE INC.; ABBVIE DEUTSCHLAND GMBH & CO. KG, 2020)

The molecules below were run against Gamma-aminobutyric acid type B receptor subunit 1/2 (UniProt O88871+Q9Z0U4) (assay: Binding Assay).
Method: The samples were incubated at room temperature for 60 minutes on a shaker. The incubation was stopped by rapid vacuum filtration over glass-fiber filter plates (UniFilter-96 well, GF/B membrane plates, PerkinElmer) using a 96-well plate harvester (TOMTEK Harvester). The UniFilter plate was washed five times with ice-cold wash buffer (50 mM Tris-HCl buffer, pH 7.7, 10 mM MgCl2, and 100 mM NaCl. After filtration the plate was dried for 90 minutes at 55° C. The plates were closed on the bottom with black sealing membranes, and liquid scintillation cocktail (35 μL, Betaplate Scint, PerkinElmer) was added to each well. After sealing the top of the plate, an additional incubation step of 90 minutes at room temperature followed before measuring the plate. The amount of membrane-bound [35S]GTPgS was measured using a 96-well plate reader (Microbeta , PerkinElmer).

Sequence of Gamma-aminobutyric acid type B receptor subunit 1/2 (Q9Z0U4 whole entry): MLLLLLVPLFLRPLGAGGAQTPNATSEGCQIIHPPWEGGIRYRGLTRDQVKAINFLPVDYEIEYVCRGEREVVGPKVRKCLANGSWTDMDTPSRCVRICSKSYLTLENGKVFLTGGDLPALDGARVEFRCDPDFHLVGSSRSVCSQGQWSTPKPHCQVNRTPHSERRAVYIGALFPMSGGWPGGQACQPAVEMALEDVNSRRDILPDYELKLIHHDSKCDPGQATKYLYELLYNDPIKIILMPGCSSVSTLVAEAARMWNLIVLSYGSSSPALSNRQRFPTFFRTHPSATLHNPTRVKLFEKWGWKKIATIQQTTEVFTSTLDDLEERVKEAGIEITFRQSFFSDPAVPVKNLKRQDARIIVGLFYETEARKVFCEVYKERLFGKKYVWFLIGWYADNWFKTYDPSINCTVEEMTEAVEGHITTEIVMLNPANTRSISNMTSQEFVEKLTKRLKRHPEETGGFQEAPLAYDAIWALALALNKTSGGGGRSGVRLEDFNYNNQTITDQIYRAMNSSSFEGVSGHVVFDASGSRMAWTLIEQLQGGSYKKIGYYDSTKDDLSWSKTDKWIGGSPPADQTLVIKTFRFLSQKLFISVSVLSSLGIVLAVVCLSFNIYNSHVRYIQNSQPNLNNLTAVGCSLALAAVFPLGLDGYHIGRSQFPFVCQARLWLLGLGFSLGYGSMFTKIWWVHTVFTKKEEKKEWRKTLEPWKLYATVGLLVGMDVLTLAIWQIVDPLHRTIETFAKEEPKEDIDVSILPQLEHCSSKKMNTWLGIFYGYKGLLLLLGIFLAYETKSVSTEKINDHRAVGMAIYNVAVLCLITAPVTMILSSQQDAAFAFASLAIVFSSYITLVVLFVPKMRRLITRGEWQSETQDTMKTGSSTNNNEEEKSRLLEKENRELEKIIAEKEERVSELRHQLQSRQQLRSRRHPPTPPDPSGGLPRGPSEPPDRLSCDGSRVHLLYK
Sequence of Gamma-aminobutyric acid type B receptor subunit 1/2 (O88871 whole entry): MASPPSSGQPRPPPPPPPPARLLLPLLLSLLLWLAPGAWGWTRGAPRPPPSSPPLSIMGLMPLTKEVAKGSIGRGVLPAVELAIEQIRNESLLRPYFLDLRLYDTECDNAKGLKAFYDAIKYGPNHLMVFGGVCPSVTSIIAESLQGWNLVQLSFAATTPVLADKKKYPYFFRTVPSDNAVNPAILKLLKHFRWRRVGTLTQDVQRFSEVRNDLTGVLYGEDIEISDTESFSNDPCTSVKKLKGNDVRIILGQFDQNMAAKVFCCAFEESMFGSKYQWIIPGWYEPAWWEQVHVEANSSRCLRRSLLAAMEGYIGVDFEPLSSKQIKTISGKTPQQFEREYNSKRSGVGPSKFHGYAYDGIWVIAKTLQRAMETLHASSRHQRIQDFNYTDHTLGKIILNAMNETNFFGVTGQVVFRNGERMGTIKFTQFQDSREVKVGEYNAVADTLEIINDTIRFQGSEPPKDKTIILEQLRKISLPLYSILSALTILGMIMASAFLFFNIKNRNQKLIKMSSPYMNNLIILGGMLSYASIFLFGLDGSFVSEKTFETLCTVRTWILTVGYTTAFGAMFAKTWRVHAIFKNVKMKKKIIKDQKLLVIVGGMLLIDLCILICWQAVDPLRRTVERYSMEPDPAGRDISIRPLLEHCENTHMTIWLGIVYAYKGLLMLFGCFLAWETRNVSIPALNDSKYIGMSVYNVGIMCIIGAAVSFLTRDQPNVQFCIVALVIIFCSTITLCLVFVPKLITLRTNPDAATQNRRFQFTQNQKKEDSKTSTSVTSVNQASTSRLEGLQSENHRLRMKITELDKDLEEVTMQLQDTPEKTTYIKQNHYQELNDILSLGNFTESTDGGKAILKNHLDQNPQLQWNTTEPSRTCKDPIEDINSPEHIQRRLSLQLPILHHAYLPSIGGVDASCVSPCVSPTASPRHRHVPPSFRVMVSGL

Compound	EC50
CC(=O)Nc1cccc(-c2nn(Cc3ccc(Cl)cc3)c(=O)c3c(C(C)C)noc23)c1 [US10556914, Example 96]	2.59 µM
COc1c(NC(C)=O)cccc1-c1nn(C(C)c2ccc(Cl)cc2)c(=O)c2c(C)noc12 (stereo not drawn) [US10556914, Example 33]	> 10 µM
COc1ccc(OC)c(-c2nn(Cc3ccc(Cl)cc3)c(=O)c3c(C(C)C)noc23)c1 [US10556914, Example 13]	3.54 µM
